Read-outs that look alike come from different tables or passages of the source.
What was measured:
[1] = target: T1, N-terminally FLAG-tagged PARP2 (amino acids 1-583) (Homo sapiens, UniProt Q9UGN5); test: PARP2 probe displacement HTRF assay; format: binding; conditions: binned Kd, PARP2 probe displacement HTRF
T1 construct: N-terminally FLAG-tagged PARP2 (amino acids 1-583)
Method: Data analysis was performed identical as for PARP1.

[2] = target: T2, full length N-terminally FLAG-tagged PARP1 (Homo sapiens, UniProt P09874); test: PARP1 biochemical DELFIA assay (auto-PARylation); design: recombinant full length human N-terminally FLAG-tagged PARP1; conditions: binned IC50, PARP1 biochemical DELFIA assay
T2 sequence (P09874 whole entry): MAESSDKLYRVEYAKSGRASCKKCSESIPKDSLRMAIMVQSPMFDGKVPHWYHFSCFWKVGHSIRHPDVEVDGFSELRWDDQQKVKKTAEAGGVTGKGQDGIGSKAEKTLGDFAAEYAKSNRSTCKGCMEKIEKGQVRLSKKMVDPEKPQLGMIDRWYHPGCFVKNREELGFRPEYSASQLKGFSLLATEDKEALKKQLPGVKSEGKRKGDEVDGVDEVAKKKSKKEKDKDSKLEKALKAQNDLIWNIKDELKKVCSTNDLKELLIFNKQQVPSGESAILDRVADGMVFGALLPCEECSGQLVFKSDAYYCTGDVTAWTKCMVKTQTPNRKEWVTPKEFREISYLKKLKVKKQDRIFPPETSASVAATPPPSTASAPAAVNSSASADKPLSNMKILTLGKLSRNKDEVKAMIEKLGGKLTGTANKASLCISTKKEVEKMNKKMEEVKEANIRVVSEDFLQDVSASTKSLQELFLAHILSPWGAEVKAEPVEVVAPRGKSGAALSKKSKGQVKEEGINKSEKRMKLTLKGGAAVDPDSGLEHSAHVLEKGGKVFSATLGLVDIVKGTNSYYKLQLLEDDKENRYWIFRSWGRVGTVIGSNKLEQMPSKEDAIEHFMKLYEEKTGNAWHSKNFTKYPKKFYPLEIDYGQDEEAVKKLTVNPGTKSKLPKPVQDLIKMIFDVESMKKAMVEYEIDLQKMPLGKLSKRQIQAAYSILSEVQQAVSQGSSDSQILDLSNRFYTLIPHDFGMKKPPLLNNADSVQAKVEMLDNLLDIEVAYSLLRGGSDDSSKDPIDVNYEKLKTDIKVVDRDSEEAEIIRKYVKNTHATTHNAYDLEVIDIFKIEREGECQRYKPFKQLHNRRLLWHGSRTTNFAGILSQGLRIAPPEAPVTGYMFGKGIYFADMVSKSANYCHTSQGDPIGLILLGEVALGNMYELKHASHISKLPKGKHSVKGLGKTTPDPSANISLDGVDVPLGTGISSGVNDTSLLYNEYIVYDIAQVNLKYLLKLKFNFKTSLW

[3] = target: T2, full length N-terminally FLAG-tagged PARP1; test: PARP1 probe displacement HTRF assay; conditions: for Kd: binned Kd, PARP1 probe displacement HTRF; for Selectivity: PARP1 over PARP2, ratio Kd (PARP2)/Kd (PARP1), probe displacement HTRF

T1 sequence (Q9UGN5 whole entry, the tested form may be a part): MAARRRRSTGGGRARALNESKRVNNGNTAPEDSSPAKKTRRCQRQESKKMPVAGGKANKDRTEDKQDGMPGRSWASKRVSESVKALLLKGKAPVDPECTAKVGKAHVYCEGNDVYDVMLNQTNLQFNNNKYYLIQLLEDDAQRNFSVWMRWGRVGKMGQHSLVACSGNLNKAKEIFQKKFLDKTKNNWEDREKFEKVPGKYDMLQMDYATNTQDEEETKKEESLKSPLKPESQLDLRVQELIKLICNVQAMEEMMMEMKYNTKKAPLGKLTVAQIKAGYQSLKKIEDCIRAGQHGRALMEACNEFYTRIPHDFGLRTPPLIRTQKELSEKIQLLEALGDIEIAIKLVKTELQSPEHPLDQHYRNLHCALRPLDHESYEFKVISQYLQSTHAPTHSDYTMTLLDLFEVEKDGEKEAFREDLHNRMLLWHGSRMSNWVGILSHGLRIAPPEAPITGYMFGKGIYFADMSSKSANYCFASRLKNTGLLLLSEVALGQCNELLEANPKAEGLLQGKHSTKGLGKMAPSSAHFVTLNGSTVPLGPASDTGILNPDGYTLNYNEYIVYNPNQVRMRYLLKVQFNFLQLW

Row | SMILES | Kd [1] [nM] | IC50 [2] [nM] | Kd ([3]; PARP1 HTRF) [nM] | Selectivity [3] | Kd ([3]; read-out: PARP1 HTRF) [nM]
1 | CNC(=O)c1ccc(N2CCC(N3CCC(c4nc5ccccc5c(=O)[nH]4)C3)CC2)cn1 (racemic) [Compound 10rac] | 100 to 1000 | < 10 | < 10 | +++ (+++ indicate a value of at least 100) | –
2 | CCc1cnc(C2CCCN(CC3CCN(c4ccc(C(=O)NC)nc4)CC3)C2)[nH]c1=O (racemic) [Compound 39rac] | > 10000 | 100 to 1000 | – | + (+ indicates a value of 10 to less than 50) | 100 to 1000
3 | CCc1cnc(C2CCN(C3CCN(c4ccc(C(=O)NC)nc4)CC3)C2)[nH]c1=O (racemic) [Compound 42rac] | 1000 to 10000 | < 10 | < 10 | +++ (+++ indicate a value of at least 100) | –
4 | CNC(=O)c1ccc(N2CCC(N3CCC(c4nc5ccc(Cl)cc5c(=O)[nH]4)C3)CC2)cn1 (racemic) [Compound 49rac] | 100 to 1000 | < 10 | – | +++ (+++ indicate a value of at least 100) | < 10
5 | CNC(=O)c1ccc(F)c(N2CCC(N3CCCC(c4nc5ccccc5c(=O)[nH]4)C3)CC2)n1 (racemic) [Compound 95rac] | 1000 to 10000 | 100 to 1000 | – | − (− indicates a value of less than 10) | 1000 to 10000
6 | CNC(=O)c1ccc(N2CCC(N3CCCC(c4nc5ccccc5c(=O)[nH]4)CC3)CC2)cn1 (racemic) [Compound 102rac] | 1000 to 10000 | < 10 | – | +++ (+++ indicate a value of at least 100) | < 10
7 | CNC(=O)c1ccc(N2CCC(N3CCCC(c4nc5ccccc5c(=O)[nH]4)C3)CC2)c(F)n1 (racemic) [Compound 103rac] | 1000 to 10000 | < 10 | – | +++ (+++ indicate a value of at least 100) | < 10
8 | CNC(=O)c1ccc(N2CCC(N3CCC(c4nc5ccccc5c(=O)[nH]4)C3)CC2)c(Cl)n1 (racemic) [Compound 104rac] | 1000 to 10000 | < 10 | – | +++ (+++ indicate a value of at least 100) | < 10
9 | CNC(=O)c1ccc(F)c(N2CCC(N3CCC(c4nc5ccccc5c(=O)[nH]4)C3)CC2)n1 (racemic) [Compound 105rac] | 1000 to 10000 | 100 to 1000 | – | − (− indicates a value of less than 10) | 100 to 1000
10 | COCCNC(=O)c1ccc(N2CCC(N3CCC(c4nc5ccccc5c(=O)[nH]4)C3)CC2)cn1 (racemic) [Compound 124rac] | 100 to 1000 | < 10 | – | +++ (+++ indicate a value of at least 100) | < 10
11 | CNC(=O)c1ccc(N2CCC(N3CCC(c4cnc(C)c(=O)[nH]4)C3)CC2)cn1 (racemic) [Compound 127rac] | > 10000 | 10 to 100 | – | +++ (+++ indicate a value of at least 100) | 10 to 100
12 | CNC(=O)c1ccc(N2CCC(N3CCCC(c4ccc(C(C)C)c(=O)[nH]4)C3)CC2)cn1 (racemic) [Compound 132rac] | > 10000 | 10 to 100 | – | +++ (+++ indicate a value of at least 100) | 10 to 100
13 | CCc1nc(C(=O)NC)ccc1N1CCC(N2CCC(c3ccc(CC)c(=O)[nH]3)C2)CC1 (racemic) [Compound 134rac] | > 10000 | < 10 | – | +++ (+++ indicate a value of at least 100) | < 10
14 | CNC(=O)c1ccc(N2CCC(N3CCC(c4cc5cccc(C(F)(F)F)c5c(=O)[nH]4)C3)CC2)cn1 (racemic) [Compound 135rac] | 10 to 100 | < 10 | – | + (+ indicates a value of 10 to less than 50) | < 10
15 | CNC(=O)c1ccc(N2CCC(N3CCC(c4cc5cccc(F)c5c(=O)[nH]4)C3)CC2)cn1 (racemic) [Compound 136rac, 5-{4-[3-(8-fluoro-1-oxo-2H-isoquinolin-3-yl)pyrrolidin-1-yl]piperidin-1-yl}-N-methylpyridine-2-carboxamide] | 10 to 100 | < 10 | < 10 | +++ (+++ indicate a value of at least 100) | –
16 | CNC(=O)c1ccc(N2CCC(N3CCCC(c4nc5ccccc5c(=O)[nH]4)C3)CC2)c(C(F)(F)F)n1 (racemic) [Compound 138rac] | 1000 to 10000 | 10 to 100 | – | ++ (++ indicates a value of 50 to less than 100) | 10 to 100
17 | CNC(=O)c1ccc(N2CCC(N3CCC(c4ccc(C5CC5)c(=O)[nH]4)C3)CC2)cn1 (racemic) [Compound 141rac] | 1000 to 10000 | < 10 | – | +++ (+++ indicate a value of at least 100) | < 10
18 | CNC(=O)c1ccc(N2CCC(N3CCC(c4ccc(C(C)C)c(=O)[nH]4)C3)CC2)cn1 (racemic) [Compound 142rac] | 1000 to 10000 | < 10 | – | +++ (+++ indicate a value of at least 100) | < 10
19 | CNC(=O)c1ccc(N2CCC(N3CCC(c4nc5c(C)nn(C)c5c(=O)[nH]4)C3)CC2)cn1 (racemic) [Compound 143rac] | 1000 to 10000 | 10 to 100 | – | +++ (+++ indicate a value of at least 100) | < 10
20 | CCc1ccc(C2CCN(C3CCN(c4ccc(C(=O)NCC(F)(F)F)nc4)CC3)C2)[nH]c1=O (racemic) [Compound 153rac] | 100 to 1000 | < 10 | – | ++ (++ indicates a value of 50 to less than 100) | < 10
21 | CNC(=O)c1ccc(N2CCC(N3CCC(c4cc5ccc(F)cc5c(=O)[nH]4)C3)CC2)cn1 (racemic) [Compound 154rac, 5-(4-(3-(7-fluoro-1-oxo-1,2-dihydroisoquinolin-3-yl)pyrrolidin-1-yl)piperidin-1-yl)-N-methylpicolinamide] | 10 to 100 | < 10 | < 10 | + (+ indicates a value of 10 to less than 50) | –
22 | CNC(=O)c1ccc(N(C)CCN2CCCC(Cc3nc4ccccc4c(=O)[nH]3)C2)cn1 (single isomer, unassigned) [Compound 13a] | – | 1000 to 10000 | – | – | –
23 | CNC(=O)c1ccc(OCCN2CCCC(Cc3nc4ccccc4c(=O)[nH]3)C2)cn1 (single isomer, unassigned) [Compound 14a, N-methyl-5-(2-(3-((4-oxo-3,4-dihydroquinazolin-2-yl)methyl)piperidin-1-yl)ethoxy)picolinamide] | – | 1000 to 10000 | – | – | –

Row | SMILES | Kd [1] [nM] | IC50 [2] [nM] | Kd ([3]; PARP1 HTRF) [nM] | Selectivity [3] | Kd ([3]; read-out: PARP1 HTRF) [nM]
24 | CNC(=O)c1ccc(N(C)CCCN2CCCC(c3nc4ccccc4c(=O)[nH]3)C2)cn1 (single isomer, unassigned) [Compound 16a] | – | 100 to 1000 | – | – | –
25 | CNC(=O)c1ccc(N(C)CCCN2CCCC(c3nc4ccccc4c(=O)[nH]3)C2)cn1 (single isomer, unassigned) [Compound 16b] | – | 100 to 1000 | – | – | –
26 | CNC(=O)c1ccc(N2CC(N3CCCC(c4nc5ccccc5c(=O)[nH]4)C3)C2)cn1 (single isomer, unassigned) [Compound 23a] | – | 100 to 1000 | – | – | –
27 | CCc1cnc(C2CCCN(C3CCC(F)(F)CC3)C2)[nH]c1=O (single isomer, unassigned) [Compound 24a] | – | 1000 to 10000 | – | – | –
28 | CCc1cnc(C2CCCN(C3CCC(F)(F)CC3)C2)[nH]c1=O (single isomer, unassigned) [Compound 24b] | – | 1000 to 10000 | – | – | –
29 | CCc1cnc(C2CCCN(C3CCN(c4ccc(C(=O)NC)nc4)CC3)C2)[nH]c1=O (single isomer, unassigned) [Compound 31a] | – | 1000 to 10000 | – | – | –
30 | O=c1[nH]c(C2CCN(C3CCN(c4ccccc4)CC3)C2)nc2ccccc12 (single isomer, unassigned) [Compound 32b] | – | 100 to 1000 | – | – | –
31 | CNC(=O)c1ccc(N2CCC(N3CCCC(c4ncc(C)c(=O)[nH]4)C3)CC2)cn1 (single isomer, unassigned) [Compound 33a] | – | > 10000 | – | – | –
32 | CNC(=O)c1ccc(N2CCC(N3CCC(c4ncc(C)c(=O)[nH]4)C3)CC2)cn1 (single isomer, unassigned) [Compound 35a] | – | 100 to 1000 | – | – | –
33 | CNC(=O)c1ccc(N2CCC(N3CCC(c4nc5ccccc5c(=O)[nH]4)CC3)CC2)cn1 [Compound 1] | – | 100 to 1000 | – | – | –
34 | CNC(=O)c1ccc(N2CCC(c3nc4ccccc4c(=O)[nH]3)CC2)cn1 [Compound 5] | – | 1000 to 10000 | – | – | –
35 | CNC(=O)c1ccc(N(C)CCCN2CCC(c3nc4ccccc4c(=O)[nH]3)CC2)cn1 [Compound 12] | – | 100 to 1000 | – | – | –
36 | CNC(=O)c1ccc(N2CCC(n3ccc(-c4nc5ccccc5c(=O)[nH]4)n3)CC2)cn1 [Compound 15] | – | 100 to 1000 | – | – | –
37 | CNC(=O)c1ccc(N2CCC(n3ccc(-c4nc5ccccc5c(=O)[nH]4)c3)CC2)cn1 [Compound 18] | – | 100 to 1000 | – | – | –
38 | CCc1cnc(C2CCN(C3CCN(c4ccc(C(=O)NC)nc4)CC3)CC2)[nH]c1=O [Compound 19] | – | 1000 to 10000 | – | – | –
39 | CCc1cnc(C2CCN(C3CCC(F)(F)CC3)CC2)[nH]c1=O [Compound 21] | – | 1000 to 10000 | – | – | –
40 | CCc1cnc(-c2ccn(C3CCN(c4ccc(C(=O)NC)nc4)CC3)c2)[nH]c1=O [Compound 22] | – | 1000 to 10000 | – | – | –
41 | CCc1cnc(-c2ccn(C3CCN(c4ccc(C(=O)NC)nc4)CC3)n2)[nH]c1=O [Compound 25] | – | 100 to 1000 | – | – | –
42 | CNC(=O)c1ccc(N2CC(N3CCC(c4nc5ccccc5c(=O)[nH]4)CC3)C2)cn1 [Compound 28] | – | 100 to 1000 | – | – | –
43 | CCc1cnc(C2CCN(CC3CCN(c4ccc(C(=O)NC)nc4)CC3)CC2)[nH]c1=O [Compound 29] | – | 1000 to 10000 | – | – | –
44 | CNC(=O)c1ccc(N2CCC(CN3CCC(c4ncc(C)c(=O)[nH]4)CC3)CC2)cn1 [Compound 30] | – | 100 to 1000 | – | – | –
45 | CNC(=O)c1ccc(N2CCC(N3CCCC(c4nc5ccccc5c(=O)[nH]4)C3)CC2)c(C)n1 (stereo not drawn) [Compound 131] | – | 1000 to 10000 | – | – | –

— patent US20250152585A1, “PHARMACEUTICAL COMPOUND” (Duke Street Bio Limited, priority 2022, published 2025)
